The supplement of paper PMC13380429

Legend:
Details in all cases: 72 h
Caco-2 [1] = experiment: cell viability relative to DMSO; higher = less toxic
Calu-3 [2] = experiment: as above
HepG2 [3] = experiment: as above
U2OS [4] = experiment: as above
Vero E6 [5] = experiment: as above
Caco-2 [6] = experiment: relative viability EC50 (midpoint between 100% and the lowest measured viability); higher = less toxic
Calu-3 [7] = experiment: as above
U2OS [8] = experiment: as above
Vero E6 [9] = experiment: as above
Caco-2 [10] = experiment: drug sensitivity score (DSS) for viability; higher = more toxic; extreme values may be limits of the assay
Calu-3 [11] = experiment: as above
HepG2 [12] = experiment: as above
U2OS [13] = experiment: as above
Vero E6 [14] = experiment: as above

`O=C1Nc2ccc(I)cc2C1=Cc1cc(Br)c(O)c(Br)c1` [GW-5074] gave a cell viability (Caco-2 [1]; 1 nM) of 95.6%, a cell viability (Caco-2 [1]; 10 nM) of 97.5% and a cell viability (Caco-2 [1]; 100 nM) of 108%. It also gave a cell viability (Caco-2 [1]; 1000 nM) of 95%, a cell viability (Caco-2 [1]; 10000 nM) of 88.3% and a cell viability (Calu-3 [2]; 1 nM) of 95.1%. For the same compound, the cell viability (Calu-3 [2]; 10 nM) was 94.2%, the cell viability (Calu-3 [2]; 100 nM) was 104% and the cell viability (Calu-3 [2]; 1000 nM) was 90.9%. For the same compound, the cell viability (Calu-3 [2]; 10000 nM) was 114%, the cell viability (HepG2 [3]; 1 nM) was 90.3% and the cell viability (HepG2 [3]; 10 nM) was 98.5%. The cell viability (HepG2 [3]; 100 nM) was 97.3%, the cell viability (HepG2 [3]; 1000 nM) was 97.5% and the cell viability (HepG2 [3]; 10000 nM) was 68.9%. For the same compound, the cell viability (U2OS [4]; 1 nM) was 99.3%, the cell viability (U2OS [4]; 10 nM) was 97.3% and the cell viability (U2OS [4]; 100 nM) was 100%. For the same compound, the cell viability (U2OS [4]; 1000 nM) was 96.1%, the cell viability (U2OS [4]; 10000 nM) was 95.5% and the cell viability (Vero E6 [5]; 1 nM) was 97%. It also gave a cell viability (Vero E6 [5]; 10 nM) of 97.3%, a cell viability (Vero E6 [5]; 100 nM) of 95.8% and a cell viability (Vero E6 [5]; 1000 nM) of 96%. The cell viability (Vero E6 [5]; 10000 nM) was 108%, the “relative viability EC50” value (Caco-2 [6]) was over 10 µM and the “relative viability EC50” value (Calu-3 [7]) was over 10 µM. The “relative viability EC50” value (U2OS [8]) was over 10 µM, the “relative viability EC50” value (Vero E6 [9]) was over 10 µM and the drug sensitivity score (Caco-2 [10]) was 0.2. For the same compound, the drug sensitivity score (Calu-3 [11]) was 0, the drug sensitivity score (HepG2 [12]) was 1.8 and the drug sensitivity score (U2OS [13]) was 0. The drug sensitivity score (Vero E6 [14]) was 0.

Compound `COc1ccc([C@@H]2CC(=O)c3c(O)cc(O)cc3O2)cc1O` [hesperetin] has a cell viability (Caco-2 [1]; 1 nM) of 104%, a cell viability (Caco-2 [1]; 10 nM) of 88.5% and a cell viability (Caco-2 [1]; 100 nM) of 92.7%. It also gave a cell viability (Caco-2 [1]; 1000 nM) of 104%, a cell viability (Caco-2 [1]; 10000 nM) of 98.4% and a cell viability (Calu-3 [2]; 1 nM) of 102%. It also gave a cell viability (Calu-3 [2]; 10 nM) of 93.7%, a cell viability (Calu-3 [2]; 100 nM) of 102% and a cell viability (Calu-3 [2]; 1000 nM) of 93%. The cell viability (Calu-3 [2]; 10000 nM) was 89.2%, the cell viability (U2OS [4]; 1 nM) was 104% and the cell viability (U2OS [4]; 10 nM) was 96.3%. It also gave a cell viability (U2OS [4]; 100 nM) of 97.1%, a cell viability (U2OS [4]; 1000 nM) of 99.8% and a cell viability (U2OS [4]; 10000 nM) of 102%. It also gave a cell viability (Vero E6 [5]; 1 nM) of 94.9%, a cell viability (Vero E6 [5]; 10 nM) of 98.7% and a cell viability (Vero E6 [5]; 100 nM) of 98.9%. The cell viability (Vero E6 [5]; 1000 nM) was 90.1%, the cell viability (Vero E6 [5]; 10000 nM) was 108% and the “relative viability EC50” value (Caco-2 [6]) was over 10 µM. For the same compound, the “relative viability EC50” value (Calu-3 [7]) was over 10 µM, the “relative viability EC50” value (U2OS [8]) was over 10 µM and the “relative viability EC50” value (Vero E6 [9]) was over 10 µM. The drug sensitivity score (Caco-2 [10]) was 0, the drug sensitivity score (Calu-3 [11]) was 0.1 and the drug sensitivity score (U2OS [13]) was 0. For the same compound, the drug sensitivity score (Vero E6 [14]) was 0.

`CN(C)c1nc(N)c(C(=O)Nc2cccnc2)nc1Cl` [ACDPP] gave a cell viability (Caco-2 [1]; 1 nM) of 87.4%, a cell viability (Caco-2 [1]; 10 nM) of 98.7% and a cell viability (Caco-2 [1]; 100 nM) of 93%. For the same compound, the cell viability (Caco-2 [1]; 1000 nM) was 89.2%, the cell viability (Caco-2 [1]; 10000 nM) was 87.9% and the cell viability (Calu-3 [2]; 1 nM) was 100%. The cell viability (Calu-3 [2]; 10 nM) was 96.8%, the cell viability (Calu-3 [2]; 100 nM) was 104% and the cell viability (Calu-3 [2]; 1000 nM) was 96.4%. It also gave a cell viability (Calu-3 [2]; 10000 nM) of 94.6%, a cell viability (HepG2 [3]; 1 nM) of 104% and a cell viability (HepG2 [3]; 10 nM) of 105%. It also gave a cell viability (HepG2 [3]; 100 nM) of 103%, a cell viability (HepG2 [3]; 1000 nM) of 80.9% and a cell viability (HepG2 [3]; 10000 nM) of 58.9%. For the same compound, the cell viability (U2OS [4]; 1 nM) was 93.6%, the cell viability (U2OS [4]; 10 nM) was 98% and the cell viability (U2OS [4]; 100 nM) was 97.7%. It also gave a cell viability (U2OS [4]; 1000 nM) of 98.5%, a cell viability (U2OS [4]; 10000 nM) of 105% and a cell viability (Vero E6 [5]; 1 nM) of 102%. The cell viability (Vero E6 [5]; 10 nM) was 95.3%, the cell viability (Vero E6 [5]; 100 nM) was 98.3% and the cell viability (Vero E6 [5]; 1000 nM) was 95.1%. The cell viability (Vero E6 [5]; 10000 nM) was 99.9%, the “relative viability EC50” value (Caco-2 [6]) was over 10 µM and the “relative viability EC50” value (Calu-3 [7]) was over 10 µM. The “relative viability EC50” value (U2OS [8]) was over 10 µM, the “relative viability EC50” value (Vero E6 [9]) was over 10 µM and the drug sensitivity score (Caco-2 [10]) was 0. The drug sensitivity score (Calu-3 [11]) was 0, the drug sensitivity score (HepG2 [12]) was 4.5 and the drug sensitivity score (U2OS [13]) was 0. It also gave a drug sensitivity score (Vero E6 [14]) of 0.
